Laboratory results from the NIST ThermoML archive (doi:10.1016/j.fluid.2008.11.013).
Numbers after ± are expanded uncertainties.

Assays:
[1] = excess molar enthalpy (molar enthalpy of mixing); xn = mol fraction of the nth substance listed; conditions: Liquid, Flow calorimetry
[2] = activity coefficient (dimensionless); of the first substance listed, at infinite dilution; xn = mol fraction of the nth substance listed; conditions: Liquid, Chromatography, x1 = 0

CCCC[N+]1(C)CCCC1.O=S(=O)([N-]S(=O)(=O)C(F)(F)F)C(F)(F)F + C=CCCCC
excess molar enthalpy ([1]; 363.15 K, 2239 kPa, x2 = 0.0587): 0.0332 ± 0.000789 kcal/mol
excess molar enthalpy ([1]; 363.15 K, 2239 kPa, x2 = 0.1135): 0.064 ± 0.00143 kcal/mol
excess molar enthalpy ([1]; 363.15 K, 2239 kPa, x2 = 0.1647): 0.0835 ± 0.00184 kcal/mol
excess molar enthalpy ([1]; 363.15 K, 2239 kPa, x2 = 0.2579): 0.104 ± 0.00227 kcal/mol
excess molar enthalpy ([1]; 363.15 K, 2239 kPa, x2 = 0.3781): 0.11 ± 0.00239 kcal/mol
excess molar enthalpy ([1]; 363.15 K, 2239 kPa, x2 = 0.4477): 0.0987 ± 0.00215 kcal/mol
excess molar enthalpy ([1]; 363.15 K, 2239 kPa, x2 = 0.5104): 0.0864 ± 0.00189 kcal/mol
excess molar enthalpy ([1]; 363.15 K, 2239 kPa, x2 = 0.6185): 0.0666 ± 0.00148 kcal/mol
excess molar enthalpy ([1]; 363.15 K, 2239 kPa, x2 = 0.7086): 0.0533 ± 0.0012 kcal/mol
excess molar enthalpy ([1]; 363.15 K, 2239 kPa, x2 = 0.7849): 0.0399 ± 0.000908 kcal/mol
excess molar enthalpy ([1]; 363.15 K, 2239 kPa, x2 = 0.8795): 0.0203 ± 0.000502 kcal/mol

CCCCCC[N+]1(C)CCCC1.O=S(=O)([N-]S(=O)(=O)C(F)(F)F)C(F)(F)F + CCCCC
excess molar enthalpy ([1]; 363.15 K, 2135 kPa, x2 = 0.0699): 0.265 ± 0.00574 kcal/mol
excess molar enthalpy ([1]; 363.15 K, 2135 kPa, x2 = 0.1337): 0.052 ± 0.00117 kcal/mol
excess molar enthalpy ([1]; 363.15 K, 2135 kPa, x2 = 0.1921): 0.0702 ± 0.00155 kcal/mol
excess molar enthalpy ([1]; 363.15 K, 2135 kPa, x2 = 0.2952): 0.096 ± 0.0021 kcal/mol
excess molar enthalpy ([1]; 363.15 K, 2135 kPa, x2 = 0.341): 0.105 ± 0.00229 kcal/mol
excess molar enthalpy ([1]; 363.15 K, 2135 kPa, x2 = 0.4229): 0.0964 ± 0.0021 kcal/mol
excess molar enthalpy ([1]; 363.15 K, 2135 kPa, x2 = 0.4942): 0.0849 ± 0.00186 kcal/mol
excess molar enthalpy ([1]; 363.15 K, 2135 kPa, x2 = 0.5568): 0.0741 ± 0.00165 kcal/mol
excess molar enthalpy ([1]; 363.15 K, 2135 kPa, x2 = 0.6615): 0.056 ± 0.00124 kcal/mol
excess molar enthalpy ([1]; 363.15 K, 2135 kPa, x2 = 0.7457): 0.0418 ± 0.000956 kcal/mol
excess molar enthalpy ([1]; 363.15 K, 2135 kPa, x2 = 0.8147): 0.031 ± 0.000741 kcal/mol
excess molar enthalpy ([1]; 363.15 K, 2135 kPa, x2 = 0.8979): 0.0187 ± 0.000478 kcal/mol
excess molar enthalpy ([1]; 363.15 K, 2135 kPa, x2 = 0.9635): 0.00796 ± 0.000287 kcal/mol

CCCCCC[N+]1(C)CCCC1.O=S(=O)([N-]S(=O)(=O)C(F)(F)F)C(F)(F)F + CCCCCC
excess molar enthalpy ([1]; 363.15 K, 1720 kPa, x2 = 0.067): 0.0295 ± 0.000717 kcal/mol
excess molar enthalpy ([1]; 363.15 K, 1720 kPa, x2 = 0.1285): 0.0574 ± 0.00129 kcal/mol
excess molar enthalpy ([1]; 363.15 K, 1720 kPa, x2 = 0.1852): 0.0807 ± 0.00177 kcal/mol
excess molar enthalpy ([1]; 363.15 K, 1720 kPa, x2 = 0.2375): 0.1 ± 0.0022 kcal/mol
excess molar enthalpy ([1]; 363.15 K, 1720 kPa, x2 = 0.2859): 0.114 ± 0.00239 kcal/mol
excess molar enthalpy ([1]; 363.15 K, 1720 kPa, x2 = 0.3309): 0.116 ± 0.00263 kcal/mol
excess molar enthalpy ([1]; 363.15 K, 1720 kPa, x2 = 0.483): 0.0924 ± 0.00203 kcal/mol
excess molar enthalpy ([1]; 363.15 K, 1720 kPa, x2 = 0.6514): 0.0629 ± 0.00141 kcal/mol

C=CCCCCCCCC [1-decene] + CCCCCC[N+]1(C)CCCC1.O=S(=O)([N-]S(=O)(=O)C(F)(F)F)C(F)(F)F
activity coefficient ([2]; 303.16 K): 18.8 ± 0.87
activity coefficient ([2]; 313.15 K): 18 ± 0.83
activity coefficient ([2]; 323.15 K): 17.3 ± 0.8
activity coefficient ([2]; 333.16 K): 16.9 ± 0.78

C=CCCCCC [1-heptene] + CCCCCCCC[N+]1(C)CCCC1.O=S(=O)([N-]S(=O)(=O)C(F)(F)F)C(F)(F)F
activity coefficient ([2]; 313.11 K): 4.37 ± 0.2
activity coefficient ([2]; 323.14 K): 4.22 ± 0.19
activity coefficient ([2]; 333.17 K): 4.1 ± 0.19
activity coefficient ([2]; 343.21 K): 4.02 ± 0.18

C=CCCCCC [1-heptene] + CCCCCC[N+]1(C)CCCC1.O=S(=O)([N-]S(=O)(=O)C(F)(F)F)C(F)(F)F
activity coefficient ([2]; 303.14 K): 6.5 ± 0.3
activity coefficient ([2]; 313.16 K): 6.31 ± 0.29
activity coefficient ([2]; 323.37 K): 6.11 ± 0.28
activity coefficient ([2]; 333.16 K): 6 ± 0.27

C=CCCCCC [1-heptene] + CCCC[N+]1(C)CCCC1.O=S(=O)([N-]S(=O)(=O)C(F)(F)F)C(F)(F)F
excess molar enthalpy ([1]; 413.15 K, 2239 kPa, x1 = 0.0525): 0.0322 ± 0.000765 kcal/mol
excess molar enthalpy ([1]; 413.15 K, 2239 kPa, x1 = 0.1022): 0.0621 ± 0.00139 kcal/mol
excess molar enthalpy ([1]; 413.15 K, 2239 kPa, x1 = 0.1492): 0.0898 ± 0.00196 kcal/mol
excess molar enthalpy ([1]; 413.15 K, 2239 kPa, x1 = 0.2762): 0.113 ± 0.00239 kcal/mol
excess molar enthalpy ([1]; 413.15 K, 2239 kPa, x1 = 0.3509): 0.1 ± 0.00217 kcal/mol
excess molar enthalpy ([1]; 413.15 K, 2239 kPa, x1 = 0.4189): 0.0913 ± 0.00201 kcal/mol
excess molar enthalpy ([1]; 413.15 K, 2239 kPa, x1 = 0.481): 0.0807 ± 0.00177 kcal/mol
excess molar enthalpy ([1]; 413.15 K, 2239 kPa, x1 = 0.5904): 0.0622 ± 0.00139 kcal/mol
excess molar enthalpy ([1]; 413.15 K, 2239 kPa, x1 = 0.6838): 0.0501 ± 0.00112 kcal/mol
excess molar enthalpy ([1]; 413.15 K, 2239 kPa, x1 = 0.7643): 0.035 ± 0.000813 kcal/mol
excess molar enthalpy ([1]; 413.15 K, 2239 kPa, x1 = 0.8664): 0.0204 ± 0.000526 kcal/mol
excess molar enthalpy ([1]; 413.15 K, 2239 kPa, x1 = 0.9511): 0.00911 ± 0.000287 kcal/mol

C=CCCC [1-pentene] + CCCCCCCC[N+]1(C)CCCC1.O=S(=O)([N-]S(=O)(=O)C(F)(F)F)C(F)(F)F
activity coefficient ([2]; 303.14 K): 2.5 ± 0.11
activity coefficient ([2]; 313.13 K): 2.43 ± 0.11
activity coefficient ([2]; 323.11 K): 2.33 ± 0.11
activity coefficient ([2]; 343.11 K): 2.25 ± 0.1

C=CCCC [1-pentene] + CCCCCC[N+]1(C)CCCC1.O=S(=O)([N-]S(=O)(=O)C(F)(F)F)C(F)(F)F
activity coefficient ([2]; 303.16 K): 3.4 ± 0.15
activity coefficient ([2]; 313.17 K): 3.37 ± 0.15
activity coefficient ([2]; 323.15 K): 3.33 ± 0.15
activity coefficient ([2]; 333.15 K): 3.31 ± 0.15

CCCCCCCCCC [decane] + CCCCCC[N+]1(C)CCCC1.O=S(=O)([N-]S(=O)(=O)C(F)(F)F)C(F)(F)F
activity coefficient ([2]; 303.13 K): 28.1 ± 1.3
activity coefficient ([2]; 313.17 K): 27 ± 1.2
activity coefficient ([2]; 323.16 K): 25.1 ± 1.2
activity coefficient ([2]; 333.16 K): 24.3 ± 1.1
activity coefficient ([2]; 343.13 K): 23 ± 1.1

CCCCCCC [heptane] + CCCCCCCC[N+]1(C)CCCC1.O=S(=O)([N-]S(=O)(=O)C(F)(F)F)C(F)(F)F
activity coefficient ([2]; 303.1 K): 6.9 ± 0.32
activity coefficient ([2]; 313.15 K): 6.73 ± 0.31
activity coefficient ([2]; 323.09 K): 6.54 ± 0.3
activity coefficient ([2]; 333.13 K): 6.36 ± 0.29

CCCCCCC [heptane] + CCCCCC[N+]1(C)CCCC1.O=S(=O)([N-]S(=O)(=O)C(F)(F)F)C(F)(F)F
activity coefficient ([2]; 303.16 K): 11.4 ± 0.52
activity coefficient ([2]; 313.16 K): 10.8 ± 0.49
activity coefficient ([2]; 323.15 K): 10.3 ± 0.47
activity coefficient ([2]; 333.12 K): 9.89 ± 0.45

C=CCCCC [hex-1-ene] + CCCCCCCC[N+]1(C)CCCC1.O=S(=O)([N-]S(=O)(=O)C(F)(F)F)C(F)(F)F
activity coefficient ([2]; 303.14 K): 3.11 ± 0.14
activity coefficient ([2]; 313.13 K): 3.29 ± 0.15
activity coefficient ([2]; 323.11 K): 3.22 ± 0.15
activity coefficient ([2]; 343.11 K): 3.15 ± 0.14

C=CCCCC [hex-1-ene] + CCCCCC[N+]1(C)CCCC1.O=S(=O)([N-]S(=O)(=O)C(F)(F)F)C(F)(F)F
activity coefficient ([2]; 303.16 K): 4.77 ± 0.22
activity coefficient ([2]; 313.17 K): 4.63 ± 0.21
activity coefficient ([2]; 323.15 K): 4.55 ± 0.21
activity coefficient ([2]; 333.15 K): 4.45 ± 0.2

CCCCCC [hexane] + CCCCCCCC[N+]1(C)CCCC1.O=S(=O)([N-]S(=O)(=O)C(F)(F)F)C(F)(F)F
activity coefficient ([2]; 303.16 K): 5.24 ± 0.24
activity coefficient ([2]; 313.13 K): 5.05 ± 0.23
activity coefficient ([2]; 323.17 K): 4.9 ± 0.22
activity coefficient ([2]; 333.19 K): 4.8 ± 0.22

CCCCCC [hexane] + CCCCCC[N+]1(C)CCCC1.O=S(=O)([N-]S(=O)(=O)C(F)(F)F)C(F)(F)F
activity coefficient ([2]; 303.15 K): 8.4 ± 0.39
activity coefficient ([2]; 313.19 K): 7.85 ± 0.36
activity coefficient ([2]; 323.16 K): 7.21 ± 0.33
activity coefficient ([2]; 333.14 K): 6.57 ± 0.3

CCCCCCCCC [nonane] + CCCCCC[N+]1(C)CCCC1.O=S(=O)([N-]S(=O)(=O)C(F)(F)F)C(F)(F)F
activity coefficient ([2]; 303.13 K): 21.4 ± 0.99
activity coefficient ([2]; 313.17 K): 19.9 ± 0.92
activity coefficient ([2]; 323.16 K): 18.8 ± 0.87
activity coefficient ([2]; 333.16 K): 18.1 ± 0.84
activity coefficient ([2]; 343.13 K): 17.1 ± 0.79

C=CCCCCCC [oct-1-ene] + CCCCCCCC[N+]1(C)CCCC1.O=S(=O)([N-]S(=O)(=O)C(F)(F)F)C(F)(F)F
activity coefficient ([2]; 313.11 K): 5.53 ± 0.25
activity coefficient ([2]; 323.14 K): 5.4 ± 0.25
activity coefficient ([2]; 333.17 K): 5.27 ± 0.24
activity coefficient ([2]; 343.21 K): 5.21 ± 0.24

C=CCCCCCC [oct-1-ene] + CCCCCC[N+]1(C)CCCC1.O=S(=O)([N-]S(=O)(=O)C(F)(F)F)C(F)(F)F
activity coefficient ([2]; 303.14 K): 8.93 ± 0.41
activity coefficient ([2]; 313.16 K): 8.61 ± 0.4
activity coefficient ([2]; 323.37 K): 8.39 ± 0.38
activity coefficient ([2]; 333.16 K): 8.2 ± 0.38

CCCCCCCC [octane] + CCCCCCCC[N+]1(C)CCCC1.O=S(=O)([N-]S(=O)(=O)C(F)(F)F)C(F)(F)F
activity coefficient ([2]; 303.1 K): 8.78 ± 0.4
activity coefficient ([2]; 313.15 K): 8.55 ± 0.39
activity coefficient ([2]; 323.09 K): 8.39 ± 0.38
activity coefficient ([2]; 333.13 K): 8.22 ± 0.38

CCCCCCCC [octane] + CCCCCC[N+]1(C)CCCC1.O=S(=O)([N-]S(=O)(=O)C(F)(F)F)C(F)(F)F
activity coefficient ([2]; 303.16 K): 15.8 ± 0.73
activity coefficient ([2]; 313.16 K): 14.7 ± 0.68
activity coefficient ([2]; 323.15 K): 13.9 ± 0.64
activity coefficient ([2]; 333.12 K): 13.3 ± 0.61

CCCCC [pentane] + CCCCCC[N+]1(C)CCCC1.O=S(=O)([N-]S(=O)(=O)C(F)(F)F)C(F)(F)F
activity coefficient ([2]; 303.15 K): 5.66 ± 0.26
activity coefficient ([2]; 313.19 K): 5.31 ± 0.24
activity coefficient ([2]; 323.16 K): 4.8 ± 0.22
activity coefficient ([2]; 333.14 K): 4.51 ± 0.21
